Experimental findings from PMC6467514 (Chembiochem : a European journal of chemical biology, 2019) are described below.

Experiment [1] concerns the target T1, adenosine deaminase (ADA) (Bos taurus, UniProt P56658).
T1 sequence (P56658 2-363): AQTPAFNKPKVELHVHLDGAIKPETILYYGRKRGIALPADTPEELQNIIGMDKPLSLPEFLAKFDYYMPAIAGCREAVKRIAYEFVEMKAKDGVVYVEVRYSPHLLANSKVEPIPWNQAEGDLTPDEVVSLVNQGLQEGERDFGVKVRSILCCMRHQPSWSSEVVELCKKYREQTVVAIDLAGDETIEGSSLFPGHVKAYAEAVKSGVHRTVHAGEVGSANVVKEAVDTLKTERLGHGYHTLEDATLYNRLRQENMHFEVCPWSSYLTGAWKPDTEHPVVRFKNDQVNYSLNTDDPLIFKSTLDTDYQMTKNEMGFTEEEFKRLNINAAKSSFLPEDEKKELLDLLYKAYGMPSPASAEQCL
The experiment is described as follows: biochemical.

Experiment [2] deals with T1, adenosine deaminase (ADA). The experiment is described as follows: fluorescence assay of tzA to tzI deamination, IC50 with Hill fit. Type of experiment: biochemical.
For experiment [3], the target named is T1, adenosine deaminase (ADA). The description is as above. It is filed as biochemical. This is another data set of the same source.
For experiment [4], the target named is T1, adenosine deaminase (ADA). The experiment is described as follows: stopped-flow fluorescence kinetics of deamination to tzG. It is filed as biochemical.

For `CCCCCC[C@H]([C@H](C)O)n1cnc2c(N)ncnc21` [EHNA], the IC50 in experiment [1] was found to be 0.0232 ± 0.0042 µM.

Compound `CNc1cc(Cl)nc2c1ncn2[C@@H]1O[C@H](CO)[C@@H](O)[C@H]1O` [compound 8, 5-chloro-7-methylamino-1-deaza-purine riboside] displayed an IC50 in experiment [2] of 21 ± 8 µM.

Take `OC[C@H]1O[C@@H](n2cnc3c(NCc4ccccc4)cc(Cl)nc32)[C@H](O)[C@@H]1O` [compound 11, 5-chloro-7-benzylamino-1-deaza-purine riboside]: in experiment [3], 220 ± 70 µM corresponded to half-maximal inhibition (IC50).

On to `Nc1nc(N)c2nsc([C@@H]3O[C@H](CO)[C@@H](O)[C@H]3O)c2n1` [tz2-AA], for which the “stopped-flow fluorescence kinetics of deamination to tzG” value in experiment [4] is recorded as “the ^tz2-AA HMM curve showed parabolic behaviour with increasing substrate concentration”.

As usually defined, the IC50 is the concentration that inhibits the measured activity by half.
